# Article PMC9946977, “Identification of linderalactone as a natural inhibitor of SHP2 to ameliorate CCl4-induced liver fibrosis” (Frontiers in Pharmacology, 2023)
# pKd: −log10 of the molar value.
# Assays:
# SHP2-PTP WT = target: T1, SHP2-PTP WT (Homo sapiens, UniProt Q06124); assay: BLI assay, wildtype SHP2-PTP; details: 1:1 binding model
# T1 construct: Human SHP2 PTP domain (A237–I529) expression constructs; His-tag; made in house; host or cells: E. coli BL21 (DE3)
# T1 sequence (Q06124 237-529): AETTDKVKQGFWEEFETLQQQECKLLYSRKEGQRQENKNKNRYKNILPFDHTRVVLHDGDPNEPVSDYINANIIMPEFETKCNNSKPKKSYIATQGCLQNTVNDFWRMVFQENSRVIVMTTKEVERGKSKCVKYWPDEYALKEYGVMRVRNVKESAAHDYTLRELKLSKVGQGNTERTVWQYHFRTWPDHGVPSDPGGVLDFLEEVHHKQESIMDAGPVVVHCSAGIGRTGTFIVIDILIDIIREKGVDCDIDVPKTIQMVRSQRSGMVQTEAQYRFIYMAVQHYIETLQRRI
# Method: The BLI assay was performed using a FortéBio Octet 96 system. To label the biotin group on SHP2 proteins, NHS-PEG12-Biotin […] was added to the purified SHP2-PTP solution […] at 1.5:1 ratio for 2 h at 4°C. The reaction mixture was then loaded onto a column (GENEMORE, #G-MM-IGT) to remove excess free biotin. The biotin-labelled-SHP2-PTP protein was loaded onto super streptavidin (SSA) sensors (#18-5057, Octet) in a buffer containing […] 25 mM HEPES, 150 mM NaCl, and 0.02% (v/v) Tween-20. After equilibrium, the kinetics of the LIN and SHP2-PTP association were analysed by soaking the SSA sensors in a compound solution with various LIN concentrations for 300 s (6.25, 12.5, 25, 50, 100, and 200 μM), followed by 300 s of dissociation in the same HEPES buffer. The equilibrium constant (KD) values were assessed using the FortéBio data analysis software by fitting the kinetic data using a 1:1 binding model.
# LX-2 cells = assay: LX-2 cells: fibrogenic gene expression and Smad2/3 phosphorylation; assay type: cell-based, human
# Method: The LX-2 cell line was purchased from the Cell Bank Type Culture Collection of the Chinese Academy of Sciences (Shanghai, China). Cells were cultured in DMEM supplemented with 10% [v/v] foetal bovine serum, 2 mM glutamine, 100 U/ml penicillin, and […] streptomycin. SHP-2 and control siRNAs were obtained from Suzhou GenePharma Co., Ltd. (sense 5'-3': GAGAGAGGAAAGAGUAAAUTT; antisense 5'-3': AUUUACUCUUUCCUCUCUCTT). Transfection was performed according to the manufacturer’s instructions. Subsequent real-time PCR and western blotting were performed to analyse transfection efficiency.
# Total RNA was extracted from liver tissues and LX-2 cells using the TRIzol reagent. cDNA was synthesised using a PrimeScript RT Master Mix kit. […] Relative expression of target genes was normalised to actin, analysed by the delta-delta-CT method and given as a ratio compared with the vehicle control. […]
# Liver proteins were isolated by using a lysis buffer containing 50 mM Tris-HCl (pH7.5), 150 mM NaCl, 1 mM EDTA, 20 mM NaF, 0.5% NP-40, 10% glycerol, 1 mM phenylmethylsulphonyl fluoride, 10 μg/mL aprotinin, 10 μg/mL leupeptin, and 10 μg/mL pepstatin. The supernatants were collected after centrifugation at 3,000 g for 10 min at 4°C, and the protein concentration of each sample was determined and normalised to the same protein concentration. […]
smiles,measurement,setting,value
"C/C1=C\CCC2=C[C@@H](OC2=O)c2c(C)coc2C1 [LIN, linderalactone]",pKd,SHP2-PTP WT,3.18
same,"fibrogenic gene expression (e.g., ACTA2, VIM, TGF-β, FN1, DES, COL1A1)","LX-2 cells; 10 μM LIN, 24 h, qPCR",significantly decreased
same,phosphorylation level of smad2/3,"LX-2 cells; LIN 5 and 10 μM, Western blot",significant reduced
